Laboratory results from patent US20220088146A1, “Melanocortin Receptor-Specific Peptide Formulations and Methods for Gastrointestinal Tract-Specific Delivery” (Palatin Technologies, Inc., priority 2018, published 2022).
Numbered stars: 1 amine (or outer) side, 2 acyl side, 3 side chain; on linkers, the order of the positions; unused ones are H or OH. Bridge positions count the residues as written; N and C are the ends. Square brackets hold non-standard residues; d marks the D form. Peptide text beside a SMILES is read from it. dPhe(4-Cl) = N[C@H](Cc1ccc(Cl)cc1)C(=O)O; dPhe(2-Cl) = N[C@H](Cc1ccccc1Cl)C(=O)O; dPhe(4-F) = N[C@H](Cc1ccc(F)cc1)C(=O)O; dPhe(2-F) = N[C@H](Cc1ccccc1F)C(=O)O; Suc = O=C(CCC(=O)[*:2])[*:1]; Nle = CCCC[C@H](N)C(=O)O; Orn = NCCC[C@H](N)C(=O)O; Dab = NCC[C@H](N)C(=O)O

Each molecule was assayed against hMC1r (Homo sapiens, UniProt Q01726) (assay: Assay for agonist activity: cAMP accumulation in HBL melanoma cells). Details: HBL, compared to NDP-α-MSH as 100%, read-out: MC-1 Emax (average; cAMP HBL).
Chain of hMC1r (Q01726 whole entry): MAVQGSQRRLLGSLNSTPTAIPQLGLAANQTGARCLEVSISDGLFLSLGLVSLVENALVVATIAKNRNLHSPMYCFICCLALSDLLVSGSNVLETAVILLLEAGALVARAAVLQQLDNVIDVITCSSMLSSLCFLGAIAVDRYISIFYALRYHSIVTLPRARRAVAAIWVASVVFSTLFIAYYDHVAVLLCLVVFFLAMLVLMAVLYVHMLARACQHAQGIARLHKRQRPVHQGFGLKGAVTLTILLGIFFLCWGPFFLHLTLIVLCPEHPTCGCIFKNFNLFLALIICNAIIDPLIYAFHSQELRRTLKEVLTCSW
Assay type: cell-based
Set-up: endogenous in cells; host or cells: HBL human melanoma cells
Procedure: 8.2 Assay for Agonist Activity.
Confluent HBL cells that express hMC1r or HEK-293 cells that express recombinant hMC4r were detached from culture plates by incubation in enzyme-free cell dissociation buffer. Dispersed cells were suspended in Earle's Balanced Salt Solution containing 10 mM HEPES (pH 7.5), 1 mM MgCl2, 1 mM glutamine, 0.5% albumin and 0.3 mM 3-isobutyl-1-methyl-xanthine (IBMX), a phosphodiesterase inhibitor. The cells were plated in 96-well plates at a density of 0.4×10^5 cells per well for HBL cells and 0.5×10^5 cells per well for HEK-293 cells and pre-incubated for 10 minutes. Cells were exposed for 15 minutes at 37° C. to peptides of the present invention dissolved in DMSO (final DMSO concentration of 1%) at a concentration range of 0.05-5000 nM in a total assay volume of 200 μL. […] Data analysis was performed by nonlinear regression analysis with Graph-Pad Prism® software.
All results are expressed in nM except for Emax values, which are percentage values. Peptides with the captioned primary sequence were synthesized and purified as described in Section 7 above, with the resulting peptide having the structure depicted.

| SMILES | Emax [%] |
| --- | --- |
| CCCC[C@H](NC(C)=O)C(=O)N[C@H]1CCC(=O)NCC[C@@H](C(N)=O)NC(=O)[C@H](CCCNC(=N)N)NC(=O)[C@@H](Cc2ccc(Cl)cc2)NC(=O)[C@H](CCCN)NC1=O [Example 9.59, Ac-Nle-cyclo(Glu-Orn-D-Phe(4-Cl)-Arg-Dab)-NH2] (Ac-[Nle]E[Orn][dPhe(4-Cl)]R[Dab]-NH2; lactam 2-6) | 100 |
| CCCC[C@H](NC(C)=O)C(=O)N[C@H]1CCC(=O)NCC[C@@H](C(N)=O)NC(=O)[C@H](CCCNC(=N)N)NC(=O)[C@@H](Cc2ccccc2)NC(=O)[C@H](Cc2c[nH]cn2)NC1=O [Example 9.32, Ac-Nle-cyclo(Glu-His-D-Phe-Arg-Dab)-NH2] | 85 |
| CCCC[C@H](NC(C)=O)C(=O)N[C@H]1CCC(=O)NCC[C@@H](C(=O)N[C@H](Cc2ccc3ccccc3c2)C(N)=O)NC(=O)[C@H](CCCNC(=N)N)NC(=O)[C@@H](Cc2ccccc2)NC(=O)[C@H](Cc2c[nH]cn2)NC1=O [Example 9.11, Ac-Nle-cyclo(Glu-His-D-Phe-Arg-Dab)-D-Nal 2-NH2] | 69 |
| CCCC[C@H](NC(C)=O)C(=O)N[C@H]1CCNC(=O)CCC(=O)NCC[C@@H](C(=O)N[C@@H](Cc2c[nH]c3ccccc23)C(N)=O)NC(=O)[C@H](CCCNC(=N)N)NC(=O)[C@@H](Cc2ccccc2)NC(=O)[C@H](Cc2c[nH]cn2)NC1=O [Example 9.27, Ac-Nle-cyclo(Dab-His-D-Phe-Arg-Dab)-Trp-NH2] | 92 |
| CCCC[C@H](NC(C)=O)C(=O)N[C@H]1CCC(=O)NCC[C@@H](C(N)=O)NC(=O)[C@H](CCCNC(=N)N)NC(=O)[C@@H](Cc2ccccc2F)NC(=O)[C@H](CCCN)NC1=O [Example 9.60, Ac-Nle-cyclo(Glu-Orn-D-Phe(2-F)-Arg-Dab)-NH2] (Ac-[Nle]E[Orn][dPhe(2-F)]R[Dab]-NH2; lactam 2-6) | 95 |
| CCCC[C@H](NC(C)=O)C(=O)N[C@H]1CCNC(=O)CCC(=O)NC[C@@H](C(=O)N[C@@H](Cc2c[nH]c3ccccc23)C(N)=O)NC(=O)[C@H](CCCNC(=N)N)NC(=O)[C@@H](Cc2ccccc2)NC(=O)[C@H](Cc2c[nH]cn2)NC1=O [Example 9.29, Ac-Nle-cyclo(Dab-His-D-Phe-Arg-Dap)-Trp-NH2] | 78 |
| CCCC[C@H](NC(C)=O)C(=O)N[C@H]1CCC(=O)NCC[C@@H](C(=O)N[C@@H](Cc2c[nH]c3ccccc23)C(N)=O)NC(=O)[C@H](CCCNC(=N)N)NC(=O)[C@@H](Cc2ccccc2)NC(=O)[C@H](CCCNC(N)=O)NC1=O [Example 9.38, Ac-Nle-cyclo(Glu-Cit-D-Phe-Arg-Dab)-Trp-NH2] | 97 |
| CCCC[C@H](NC(C)=O)C(=O)N[C@H]1CCC(=O)NCC[C@@H](C(N)=O)NC(=O)[C@H](CCCNC(=N)N)NC(=O)[C@@H](Cc2ccccc2)NC(=O)[C@@H]2CCCN2C1=O [Example 9.65, Ac-Nle-cyclo(Glu-Pro-D-Phe-Arg-Dab)-NH2] | 102 |
| N=C(N)NCCC[C@@H]1NC(=O)[C@@H](Cc2ccccc2)NC(=O)[C@H](Cc2c[nH]cn2)NC(=O)[C@@H](NC(=O)Cc2ccccc2)CCC(=O)NCC[C@@H](C(=O)N[C@@H](Cc2c[nH]c3ccccc23)C(N)=O)NC1=O [Example 9.23, phenyl acetyl-cyclo(Glu-His-D-Phe-Arg-Dab)-Trp-NH2] | 82 |
| CCCC[C@H](NC(C)=O)C(=O)N[C@H]1CCC(=O)NCC[C@@H](C(=O)N[C@@H](Cc2c[nH]c3ccccc23)C(N)=O)NC(=O)[C@H](CCCNC(=N)N)NC(=O)[C@@H](Cc2ccccc2)NC(=O)[C@H](CCCCN)NC1=O [Example 9.40, Ac-Nle-cyclo(Glu-Lys-D-Phe-Arg-Dab)-Trp-NH2] | 108 |
| CCCC[C@H](NC(C)=O)C(=O)N[C@H]1CCC(=O)NCC[C@@H](C(N)=O)NC(=O)[C@H](CCCNC(=N)N)NC(=O)[C@@H](Cc2ccc(OC)cc2)NC(=O)[C@H](CCCN)NC1=O [Example 9.64, Ac-Nle-cyclo(Glu-Orn-D-Phe(4-OMe)-Arg-Dab)-NH2] (Ac-[Nle]E[Orn][dY](Me)R[Dab]-NH2; lactam 2-6) | 99 |
| N=C(N)NCCC[C@@H]1NC(=O)[C@@H](Cc2ccccc2)NC(=O)[C@H](Cc2c[nH]cn2)NC(=O)CCC(=O)NCC[C@@H](C(=O)N[C@@H](Cc2c[nH]c3ccccc23)C(N)=O)NC1=O [Example 9.14, cyclo(Suc-His-Phe-Arg-Dab)-Trp-NH2] (H[dF]R[Dab]W-NH2; linker N-4 via Suc) | 80 |
| CCCC[C@H](NC(C)=O)C(=O)N[C@H]1CCC(=O)NCC[C@@H](C(=O)N[C@H](Cc2cccc3ccccc23)C(N)=O)NC(=O)[C@H](CCCNC(=N)N)NC(=O)[C@@H](Cc2ccccc2)NC(=O)[C@H](Cc2c[nH]cn2)NC1=O [Example 9.9, Ac-Nle-cyclo(Glu-His-D-Phe-Arg-Dab)-D-Nal 1-NH2] | 73 |
| CCCC[C@H](NC(C)=O)C(=O)N[C@H]1CCC(=O)NCC[C@@H](C(N)=O)NC(=O)[C@H](CCCNC(=N)N)NC(=O)[C@@H](Cc2ccccc2Cl)NC(=O)[C@H](CCCN)NC1=O [Example 9.57, Ac-Nle-cyclo(Glu-Orn-D-Phe(2-Cl)-Arg-Dab)-NH2] (Ac-[Nle]E[Orn][dPhe(2-Cl)]R[Dab]-NH2; lactam 2-6) | 88 |
| N=C(N)NCCC[C@@H]1NC(=O)[C@@H](Cc2ccccc2)NC(=O)[C@H](Cc2c[nH]cn2)NC(=O)[C@@H](NC(=O)CC2CCCC2)CCC(=O)NCC[C@@H](C(=O)N[C@@H](Cc2c[nH]c3ccccc23)C(N)=O)NC1=O [Example 9.21, cyclopentyl acetyl-cyclo(Glu-His-D-Phe-Arg-Dab)-Trp-NH2] | 83 |
| CCCC[C@H](NC(C)=O)C(=O)N[C@H]1CCC(=O)NCC[C@@H](C(N)=O)NC(=O)[C@@H](Cc2ccccc2)NC(=O)[C@H](Cc2c[nH]cn2)NC1=O [Example 9.46, Ac-Nle-cyclo(Glu-His-D-Phe-Dab)-NH2] (Ac-[Nle]EH[dF][Dab]-NH2; lactam 2-5) | 51 |
| CCCC[C@H](NC(C)=O)C(=O)N[C@H]1CCC(=O)NCC[C@@H](C(=O)N[C@@H](Cc2c[nH]c3ccccc23)C(N)=O)NC(=O)[C@H](CCCNC(=N)N)NC(=O)[C@@H](Cc2ccccc2)NC(=O)[C@H](CCCN)NC1=O [Example 9.42, Ac-Nle-cyclo(Glu-Orn-D-Phe-Arg-Dab)-Trp-NH2] | 109 |
| N=C(N)NCCC[C@@H]1NC(=O)[C@@H](Cc2ccccc2)NC(=O)[C@H](Cc2c[nH]cn2)NC(=O)[C@@H](NC(=O)CCc2ccccc2)CCC(=O)NCC[C@@H](C(=O)N[C@@H](Cc2c[nH]c3ccccc23)C(N)=O)NC1=O [Example 9.24, phenyl propanoyl-cyclo(Glu-His-D-Phe-Arg-Dab)-Trp-NH2] | 83 |
| CCCC[C@H](NC(C)=O)C(=O)N[C@H]1CSSC[C@@H](C(=O)N[C@@H](Cc2c[nH]c3ccccc23)C(N)=O)NC(=O)[C@H](CCCNC(=N)N)NC(=O)[C@@H](Cc2ccccc2)NC(=O)[C@H](Cc2c[nH]cn2)NC1=O [Example 9.5, Ac-Nle-cyclo(Cys-His-D-Phe-Arg-Cys)-Trp-NH2] | 87 |
| CC(=O)N[C@@H](Cc1ccccc1)C(=O)N[C@H]1CCC(=O)NCC[C@@H](C(=O)N[C@@H](Cc2c[nH]c3ccccc23)C(N)=O)NC(=O)[C@H](CCCNC(=N)N)NC(=O)[C@@H](Cc2ccccc2)NC(=O)[C@H](Cc2c[nH]cn2)NC1=O [Example 9.13, Ac-Phe-cyclo(Glu-His-D-Phe-Arg-Dab)-Trp-NH2] | 75 |
| N=C(N)NCCC[C@@H]1NC(=O)[C@@H](Cc2ccccc2)NC(=O)[C@H](Cc2c[nH]cn2)NC(=O)[C@@H](NC(=O)CC2CCCCC2)CCC(=O)NCC[C@@H](C(=O)N[C@@H](Cc2c[nH]c3ccccc23)C(N)=O)NC1=O [Example 9.22, cyclohexyl acetyl-cyclo(Glu-His-D-Phe-Arg-Dab)-Trp-NH2] | 85 |
| CCCCC(=O)N[C@H]1CCC(=O)NCC[C@@H](C(=O)N[C@@H](Cc2c[nH]c3ccccc23)C(N)=O)NC(=O)[C@H](CCCNC(=N)N)NC(=O)[C@@H](Cc2ccccc2)NC(=O)[C@H](Cc2c[nH]cn2)NC1=O [Example 9.16, CH3—(CH2)3—C(═O)-cyclo(Glu-His-D-Phe-Arg-Dab)-Trp-NH2] | 89 |
| CCCC[C@H](NC(C)=O)C(=O)N[C@H]1CNC(=O)CCC(=O)NC[C@@H](C(=O)N[C@@H](Cc2c[nH]c3ccccc23)C(N)=O)NC(=O)[C@H](CCCNC(=N)N)NC(=O)[C@@H](Cc2ccccc2)NC(=O)[C@H](Cc2c[nH]cn2)NC1=O [Example 9.28, Ac-Nle-cyclo(Dap-His-D-Phe-Arg-Dap)-Trp-NH2] | 70 |
| CCCC[C@H](NC(C)=O)C(=O)N[C@H]1CCC(=O)NCC[C@@H](C(=O)N[C@@H](C)C(N)=O)NC(=O)[C@H](CCCNC(=N)N)NC(=O)[C@@H](Cc2ccccc2)NC(=O)[C@H](Cc2c[nH]cn2)NC1=O [Example 9.25, Ac-Nle-cyclo(Glu-His-D-Phe-Arg-Dab)-Ala-NH2] (Ac-[Nle]EH[dF]R[Dab]A-NH2; lactam 2-6) | 97 |
| CCCC[C@H](NC(C)=O)C(=O)N[C@H]1CCC(=O)NCC[C@@H](C(N)=O)NC(=O)[C@H](CCCNC(=N)N)NC(=O)[C@@H](Cc2ccc(F)cc2)NC(=O)[C@H](CCCN)NC1=O [Example 9.61, Ac-Nle-cyclo(Glu-Orn-D-Phe(4-F)-Arg-Dab)-NH2] (Ac-[Nle]E[Orn][dPhe(4-F)]R[Dab]-NH2; lactam 2-6) | 102 |
| CCCC[C@H](NC(C)=O)C(=O)N[C@H]1CCC(=O)NCC[C@@H](C(=O)N[C@@H](Cc2c[nH]c3ccccc23)C(N)=O)NC(=O)[C@H](CCCNC(=N)N)NC(=O)[C@@H](Cc2ccccc2)NC(=O)[C@H](Cc2c[nH]cn2)NC1=O [Example 9.2, Ac-Nle-cyclo(Glu-His-D-Phe-Arg-Dab)-Trp-NH2] | 95 |
